Data published in patent US9133187B2, “Serine/threonine kinase inhibitors” (ARRAY BIOPHARMA INC., priority 2011, dated 2015).

Experiments:
[1] = target: human ERK-2 (Mitogen Activated Kinase 1) (Homo sapiens (Human), UniProt P28482); test: ERK-2 Enzymatic Assay; format: biochemical; conditions: 5 nM ERK-2, 25 μM ATP, Omnia peptide S/T17; read-out: ERK Inhibition IC50
Method in brief: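 Recombinant N-terminal 6-His human ERK-2 (aa 8-360, E. coli) with fluorescent Omnia peptide S/T17 substrate, ambient temperature, read kinetically every 50 s for ~30 min (Ex 340/Em 495 nm). Linear rates converted to percent of control; IC50 from four-parameter fit.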

HCT116 cells = test: Cell Proliferation/Viability Assay (Cell Titer-Blue, 72 h); format: cell-based; conditions: Homo sapiens, HCT-116, 3-day (72-hour) incubation
Experimental: The cytotoxic or cytostatic activity of formula I exemplary compounds was measured by: establishing a proliferating mammalian tumor cell line in a cell culture medium, adding a formula I compound, culturing the cells for a period from about 6 h to about 5 d; and measuring cell viability (Example 78). Cell-based in vitro assays were used to measure viability, i.e. proliferation (IC50), cytotoxicity (EC50).
Viable cells after a 3-day (72-hour) incubation with ERK compounds were quantified using the Cell Titer-Blue Cell Viability Assay from Promega.
Materials and Methods: HCT116 cells were plated in 96 well micro-plates at a density of 1,000 cells/well. The cells were allowed to attach to micro-plate overnight at 37° C./5% CO2. After overnight attachment, diluted compounds were then added to the cells at a final concentration of 0.5% DMSO. After 3 days (72 hours) at 37° C./5% CO2, the number of viable cells was determined using the Cell Titer-Blue Cell Viability Assay from Promega. Briefly, Cell Titer-Blue reagent were added to the cells and incubated for 1 hour. Fluorescense (560 nmexcitation/590 nmemission) was then read using a fluorescence micro-plate reader. Background from high concentration ERK-inhibited wells was subtracted. Representative date is in TABLE III (infra).

[2] = system: PMA-stimulated P90RSK(Ser380) phosphorylation in HepG2 cells; test: Cellular P90RSK(Ser380) Phosphorylation Assay; format: cell-based; conditions: Homo sapiens, 1.5 h compound incubation, PMA stimulation, pP90RSK(Ser380) normalized to GAPDH, read-out: Cell Assay IC50
Method in brief: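 HepG2 cells were pretreated with compound (0.5% DMSO final) for 1.5 h, then stimulated with PMA 100 ng/mL for 30 min at 37° C. Fixed, permeabilized cells were immunostained for pP90RSK(Ser380) and GAPDH. The two-channel infrared fluorescence was read, and the phospho signal was normalized to GAPDH.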

human ERK-2 (Mitogen Activated Kinase 1), sequence (P28482 8-360): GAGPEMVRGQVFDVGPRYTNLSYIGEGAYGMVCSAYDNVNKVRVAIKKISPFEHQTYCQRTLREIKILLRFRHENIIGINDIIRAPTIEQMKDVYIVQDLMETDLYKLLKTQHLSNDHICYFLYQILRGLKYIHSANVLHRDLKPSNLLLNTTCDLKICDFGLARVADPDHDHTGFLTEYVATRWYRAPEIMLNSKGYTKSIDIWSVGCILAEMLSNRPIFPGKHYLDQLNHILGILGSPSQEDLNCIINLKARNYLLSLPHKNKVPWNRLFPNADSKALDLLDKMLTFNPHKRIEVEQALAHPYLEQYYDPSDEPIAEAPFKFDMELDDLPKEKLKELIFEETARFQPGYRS

SMILES	IC50 [1]	IC50 (HCT116 cells)	IC50 [2]
CC(C)Nc1ncc2c(n1)CN(C(=O)N[C@@H](c1ccc(C(F)(F)F)c(F)c1)[C@H]1CCCN1)CC2 [Compound I-15, N—((S)-(3-fluoro-4-(trifluoromethyl)phenyl)((R)-pyrrolidin-2-yl)methyl)-2-(isopropylamino)-5,6-dihydropyrido[3,4-d]pyrimidine-7(8H)-carboxamide]	1.1 nM	625 nM	37.3 nM
CC(C)Nc1ncc2c(n1)CN(C(=O)N[C@H](CCC#N)c1ccc(Cl)c(Cl)c1)CC2 [Compound I-104, (R)—N-(3-cyano-1-(3,4-dichlorophenyl)propyl)-2-(isopropylamino)-5,6-dihydropyrido[3,4-d]pyrimidine-7(8H)-carboxamide]	2.2 nM	1600 nM	58.6 nM
CN1C[C@@H](NC(=O)N2CCc3cnc(NC4CCOCC4)nc3C2)[C@H](c2ccc(Cl)c(F)c2)C1 [Compound I-124, N-((3S,4R)-4-(4-chloro-3-fluorophenyl)-1-methylpyrrolidin-3-yl)-2-(tetrahydro-2H-pyran-4-ylamino)-5,6-dihydropyrido[3,4-d]pyrimidine-7(8H)-carboxamide]	2.3 nM	47.5 nM	5.95 nM
C[C@@H](CO)Nc1ncc2c(n1)CN(C(=O)N[C@H](CCO)c1ccc(Cl)c(Cl)c1)CC2 [Compound I-33, N—((R)-1-(3,4-dichlorophenyl)-3-hydroxypropyl)-2-((S)-1-hydroxypropan-2-ylamino)-5,6-dihydropyrido[3,4-d]pyrimidine-7(8H)-carboxamide]	1.1 nM	1900 nM	55 nM
O=C(NCc1cc2ccccc2[nH]1)N1CCc2cnc(NC3CCOCC3)nc2C1 [Compound I-114, N-((1H-indol-2-yl)methyl)-2-(tetrahydro-2H-pyran-4-ylamino)-5,6-dihydropyrido[3,4-d]pyrimidine-7(8H)-carboxamide]	23.2 nM	1500 nM	25.4 nM
O=C(N[C@@H](c1ccc(Cl)c(Cl)c1)c1cnco1)N1CCc2cnc(NC3CCOCC3)nc2C1 [Compound I-1, (S)—N-((3,4-dichlorophenyl)(oxazol-5-yl)methyl)-2-(tetrahydro-2H-pyran-4-ylamino)-5,6-dihydropyrido[3,4-d]pyrimidine-7(8H)-carboxamide]	1.1 nM	301 nM	4.55 nM
C[C@@H](CO)Nc1cc2c(cn1)CCN(C(=O)N[C@H](C)c1ccc(Cl)c(Cl)c1)C2 [Compound I-149, N—((R)-1-(3,4-dichlorophenyl)ethyl)-7-((S)-1-hydroxypropan-2-ylamino)-3,4-dihydro-2,6-naphthyridine-2(1H)-carboxamide]	3 nM	4100 nM	75.7 nM
C[C@@H](NC(=O)N1CCc2cnc(N[C@H]3CC[C@H](O)C3)nc2C1)c1ccc(C(F)(F)F)c(F)c1 [Compound I-52, N—((R)-1-(3-fluoro-4-(trifluoromethyl)phenyl)ethyl)-2-((1S,3S)-3-hydroxycyclopentylamino)-5,6-dihydropyrido[3,4-d]pyrimidine-7(8H)-carboxamide]	2.7 nM	1400 nM	57 nM
